# Laboratory results from publication PMC12564596 (2025).
# Legend:
# [1] = tested on: HS-Apt-PEN (DNA, aptamer) CTGAATTGGATCTCTCTTCTTGAGCGATCTCCACA; experiment: LSPR on AuNPs, Langmuir fit; details: 137 mM NaCl, 2.7 mM KCl; PBS pH 7.4; flow; MCH and salmon sperm DNA passivation; immobilised aptamer
# [2] = tested on: HS-Apt-PEN (DNA, aptamer) CTGAATTGGATCTCTCTTCTTGAGCGATCTCCACA; experiment: QCM-D on gold electrode, Langmuir fit of 3rd harmonic frequency; details: 137 mM NaCl, 2.7 mM KCl; PBS pH 7.4; flow; immobilised aptamer; no clear plateau to 500 nM; some non-specific binding likely
# [3] = tested on: HS-Apt-OTC (DNA, aptamer) GGGGGCACACATGTAGGTGCTGTCCAGGTGTGGTTGTGGT; experiment: LSPR and QCM-D selectivity test; details: 137 mM NaCl, 2.7 mM KCl; PBS pH 7.4; 100 nM compound
compound,measurement,setting,value
CC1(C)S[C@@H]2[C@H](NC(=O)Cc3ccccc3)C(=O)N2[C@H]1C(=O)O,KD,[1],0.02 µM
same,KD,[2],0.05 µM
CN(C)[C@@H]1C(=O)C(C(N)=O)=C(O)[C@@]2(O)C(=O)C3=C(O)c4c(O)cccc4[C@@](C)(O)[C@H]3[C@H](O)[C@@H]12,binding,[3],yes
